{"source": "PubChem BioAssay (NCI)", "note": "Where “and” joins values, the source holds several entries; their conditions need not be identical. Equal entries are not always repeated.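 In this assay, cells in 96-well plates receive the compound at five concentrations for 48 hours. Endpoints are linearly interpolated between the surrounding concentrations. GI50 = concentration required for 50% inhibition of growth. Definition used: TGI = concentration required for complete inhibition of growth.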"}
{"system": "SK-MEL-28 melanoma", "experiment": "NCI-60 cell line screen, 48 h", "units": {"TGI": "µM", "GI50": "µM"}}
{"smiles": "CCC1CN(C(=O)c2ccccc2)C(Cc2c[nH]c3ccccc23)C(=O)C1CC(=O)OC", "note": "(centres undefined)", "TGI": "> 100"}
{"smiles": "CC12CC3OC(=O)C1COC14OC5(C2C1=O)C(O)(CCC1C4CC(O)C2(O)CC=CC(=O)C12C)C(=O)OC35C", "note": "(centres undefined)", "TGI": "> 100"}
{"smiles": "O=c1cccccc1[O-].O=c1cccccc1[O-].[O]=[U+2]=[O]", "TGI": 61}
{"smiles": "COc1ccc(C(=O)/C=C/c2cccc([N+](=O)[O-])c2)c(OC)c1", "GI50": 4.75, "TGI": "> 50"}
{"smiles": "CCOC(=O)C(NC(=O)c1ccco1)(Nc1nc2ccc(OCC)cc2s1)C(F)(F)F", "note": "(centres undefined)", "TGI": "> 100"}
{"smiles": "CCC(C)C1=C(OC(C)=O)[N+]2([O-])Oc3ccc(-c4c(OC(C)=O)c(OC(C)=O)c(-c5ccc(OC(C)=O)cc5)c(OC(C)=O)c4OC(C)=O)cc3OC2(C(C)CC)C(=O)N1OC(C)=O", "note": "(centres undefined)", "TGI": 44.7}
{"smiles": "O=C(O)C1C2CCC(O2)C1C(=O)Nc1cccc2cccnc12", "note": "(centres undefined)", "TGI": "> 100"}
{"smiles": "COc1cccc2c1Cc1cc(-c3ccccc3)[n+](C)n1-2", "TGI": "> 100"}
{"smiles": "O=C(OCN1C(=O)C2C3C=CC(C2C1=O)C1C2C(=O)N(COC(=O)C4CCCN4)C(=O)C2C31)C1CCCN1", "note": "(centres undefined)", "TGI": "> 100"}
{"smiles": "O=C(C[n+]1ccc2ccccc2c1)c1ccc2ccc3ccccc3c2c1", "TGI": 9.08}
{"smiles": "NCCCCc1cc(O)c2c(c1O)C(=O)c1ccccc1C2=O", "TGI": 33.6}
{"smiles": "Cc1ccccc1C(=O)N/N=C/c1ccc(Sc2nccn2C)c([N+](=O)[O-])c1", "TGI": "> 100"}
{"smiles": "CCn1c(-c2ccc(N=NNc3ccc(-c4n[nH]c(=S)n4CC)cc3)cc2)n[nH]c1=S", "TGI": "> 100"}
{"smiles": "CC(=O)C1=C(C)N(c2ccc(C)cc2)C2(O)C=CC(=O)C3C(=O)N(c4ccccc4)C(=O)C132", "note": "(centres undefined)", "TGI": 43.8}
{"smiles": "COc1ccc2c(c1)[nH]c1c(/C=C/c3ccccc3)nccc12", "TGI": 31.9}
{"smiles": "Clc1cc2c(cc1Cl)CC(NCCN1CCCC1)CC2", "note": "(centres undefined)", "TGI": 29.9}
{"smiles": "[N-]=[N+]=CC(=O)c1ccccc1C#CCCc1ccccc1", "TGI": "> 100"}
{"smiles": "CCN(CC(=O)O)C(=O)c1cccnc1", "TGI": "> 100"}
{"smiles": "NCCSC(c1ccccc1)c1ccccc1", "TGI": 35.7}
{"smiles": "CCCCCCCCC/C=C/C=C/C(=O)NCC(=O)NC1C(O)C(O)C(Nc2ncnc3nc[nH]c23)OC1C(O)CO", "note": "(centres undefined)", "TGI": 3.25}
{"smiles": "COc1nc(C#CC2(O)CCCCC2)nc(OC)n1", "TGI": 30.2}
{"smiles": "C[C@H](CCC(=O)O)[C@H]1CC[C@@]2(C)[C@@H]3C(=O)C[C@H]4C(C)(C)[C@@H](O)CC[C@]4(C)[C@H]3C(=O)C[C@]12C", "TGI": "> 100"}
{"system": "NCI-H460 lung", "experiment": "NCI-60 cell line screen, 48 h", "units": {"GI50": "µM"}}
{"smiles": "CCOC(=O)C1=NN(c2ccc(C)cc2)C2=CC(C)=NN(C)C(=S)N21", "TGI": "> 100 µM"}
{"smiles": "O=C(c1cccs1)N(C(=S)OC12CC3CC(CC(C3)C1)C2)c1ccccc1", "TGI": "> 100 µM"}
{"smiles": "C(=N\\NC1=NCCN1)/c1ccc(-c2cn3cc(/C=N/NC4=NCCN4)ccc3n2)cc1", "TGI": "> 45.8 µM"}
{"smiles": "CC1CC[C@@]2(OC1)OC1C[C@H]3[C@@H]4CC=C5CC(OC6OC(CO)C(OC7OC(CO)C(O)C(OC8OCC(O)C(O)C8O)C7OC7OC(CO)C(O)C(O)C7O)C(O)C6O)CCC5(C)[C@H]4CCC3(C)C1[C@@H]2C", "note": "(some centres undefined)", "TGI": "11.8 µM"}
{"smiles": "Nc1ccccc1S(=O)(=O)c1ccccc1", "TGI": "> 100 µM"}
{"smiles": "Cc1c(N2C(=O)CS(=O)(=O)C2c2cccc(Oc3ccccc3)c2)c(=O)n(-c2ccccc2)n1C", "note": "(centres undefined)", "TGI": "> 100 µM"}
{"smiles": "COc1cc2c(ccc3c4cc(OC)c(OC)cc4c[n+](C)c23)cc1O", "TGI": "> 75 µM"}
{"smiles": "CNC(=O)OCc1c(CO)nc(SC)n1C", "TGI": "> 100 µM"}
{"smiles": "CN(C)CC(CC1=C(CC(CN(C)C)N(C)C)CCC1)N(C)C", "note": "(centres undefined)", "TGI": "> 100 µM"}
{"smiles": "CCC1CN(C(=O)c2ccccc2)C(Cc2c[nH]c3ccccc23)C(=O)C1CC(=O)OC", "note": "(centres undefined)", "TGI": "> 100 µM"}
{"smiles": "CC12CC3OC(=O)C1COC14OC5(C2C1=O)C(O)(CCC1C4CC(O)C2(O)CC=CC(=O)C12C)C(=O)OC35C", "note": "(centres undefined)", "TGI": "> 100 µM"}
{"smiles": "NC(=O)c1c(NC(=O)c2ccccn2)sc2c1CCC(=O)C2", "GI50": "> 100", "TGI": "> 100 µM"}
{"smiles": "O=c1cccccc1[O-].O=c1cccccc1[O-].[O]=[U+2]=[O]", "TGI": "> 100 µM"}
{"smiles": "COc1ccc(C(=O)/C=C/c2cccc([N+](=O)[O-])c2)c(OC)c1", "GI50": 1.27, "TGI": "3.31 µM"}
{"smiles": "CCOC(=O)C(NC(=O)c1ccco1)(Nc1nc2ccc(OCC)cc2s1)C(F)(F)F", "note": "(centres undefined)", "TGI": "> 100 µM"}
{"smiles": "CCC(C)C1=C(OC(C)=O)[N+]2([O-])Oc3ccc(-c4c(OC(C)=O)c(OC(C)=O)c(-c5ccc(OC(C)=O)cc5)c(OC(C)=O)c4OC(C)=O)cc3OC2(C(C)CC)C(=O)N1OC(C)=O", "note": "(centres undefined)", "TGI": "> 50 µM"}
{"smiles": "O=C(O)C1C2CCC(O2)C1C(=O)Nc1cccc2cccnc12", "note": "(centres undefined)", "TGI": "> 100 µM"}
{"smiles": "COc1cccc2c1Cc1cc(-c3ccccc3)[n+](C)n1-2", "TGI": "40.4 µM"}
{"smiles": "O=C(OCN1C(=O)C2C3C=CC(C2C1=O)C1C2C(=O)N(COC(=O)C4CCCN4)C(=O)C2C31)C1CCCN1", "note": "(centres undefined)", "TGI": "> 56.5 µM"}
{"smiles": "O=C(C[n+]1ccc2ccccc2c1)c1ccc2ccc3ccccc3c2c1", "TGI": "5.85 µM"}
{"smiles": "NCCCCc1cc(O)c2c(c1O)C(=O)c1ccccc1C2=O", "TGI": "26.6 µM"}
{"smiles": "Cc1ccccc1C(=O)N/N=C/c1ccc(Sc2nccn2C)c([N+](=O)[O-])c1", "TGI": "> 100 µM"}
{"smiles": "CC(=O)C1=C(C)N(c2ccc(C)cc2)C2(O)C=CC(=O)C3C(=O)N(c4ccccc4)C(=O)C132", "note": "(centres undefined)", "TGI": "> 100 µM"}
{"smiles": "COc1ccc2c(c1)[nH]c1c(/C=C/c3ccccc3)nccc12", "TGI": "33.7 µM"}
{"smiles": "Clc1cc2c(cc1Cl)CC(NCCN1CCCC1)CC2", "note": "(centres undefined)", "TGI": "31.2 µM"}
{"smiles": "[N-]=[N+]=CC(=O)c1ccccc1C#CCCc1ccccc1", "TGI": "> 100 µM"}
{"smiles": "CCN(CC(=O)O)C(=O)c1cccnc1", "TGI": "> 100 µM"}
{"smiles": "NCCSC(c1ccccc1)c1ccccc1", "TGI": "29.3 µM"}
{"smiles": "CCCCCCCCC/C=C/C=C/C(=O)NCC(=O)NC1C(O)C(O)C(Nc2ncnc3nc[nH]c23)OC1C(O)CO", "note": "(centres undefined)", "GI50": 0.00278, "TGI": "1.23 µM and 0.321 µM"}
{"smiles": "COc1nc(C#CC2(O)CCCCC2)nc(OC)n1", "TGI": "78.6 µM"}
{"smiles": "C[C@H](CCC(=O)O)[C@H]1CC[C@@]2(C)[C@@H]3C(=O)C[C@H]4C(C)(C)[C@@H](O)CC[C@]4(C)[C@H]3C(=O)C[C@]12C", "TGI": "> 100 µM"}
{"system": "OVCAR-4 ovarian", "experiment": "NCI-60 cell line screen, 48 h", "units": {"TGI": "µM", "GI50": "µM"}}
{"smiles": "CCOC(=O)C1=NN(c2ccc(C)cc2)C2=CC(C)=NN(C)C(=S)N21", "TGI": "> 100"}
{"smiles": "O=C(c1cccs1)N(C(=S)OC12CC3CC(CC(C3)C1)C2)c1ccccc1", "TGI": "> 100"}
{"smiles": "C(=N\\NC1=NCCN1)/c1ccc(-c2cn3cc(/C=N/NC4=NCCN4)ccc3n2)cc1", "TGI": "> 100"}
{"smiles": "CC1CC[C@@]2(OC1)OC1C[C@H]3[C@@H]4CC=C5CC(OC6OC(CO)C(OC7OC(CO)C(O)C(OC8OCC(O)C(O)C8O)C7OC7OC(CO)C(O)C(O)C7O)C(O)C6O)CCC5(C)[C@H]4CCC3(C)C1[C@@H]2C", "note": "(some centres undefined)", "TGI": 17.4}
{"smiles": "Nc1ccccc1S(=O)(=O)c1ccccc1", "TGI": "> 100"}
{"smiles": "Cc1c(N2C(=O)CS(=O)(=O)C2c2cccc(Oc3ccccc3)c2)c(=O)n(-c2ccccc2)n1C", "note": "(centres undefined)", "TGI": 66.3}
{"smiles": "COc1cc2c(ccc3c4cc(OC)c(OC)cc4c[n+](C)c23)cc1O", "TGI": "> 65.8"}
{"smiles": "CNC(=O)OCc1c(CO)nc(SC)n1C", "TGI": "> 100"}
{"smiles": "CN(C)CC(CC1=C(CC(CN(C)C)N(C)C)CCC1)N(C)C", "note": "(centres undefined)", "TGI": "> 100"}
{"smiles": "CCC1CN(C(=O)c2ccccc2)C(Cc2c[nH]c3ccccc23)C(=O)C1CC(=O)OC", "note": "(centres undefined)", "TGI": "> 100"}
{"smiles": "CC12CC3OC(=O)C1COC14OC5(C2C1=O)C(O)(CCC1C4CC(O)C2(O)CC=CC(=O)C12C)C(=O)OC35C", "note": "(centres undefined)", "TGI": "> 100"}
{"smiles": "O=c1cccccc1[O-].O=c1cccccc1[O-].[O]=[U+2]=[O]", "TGI": 57}
{"smiles": "COc1ccc(C(=O)/C=C/c2cccc([N+](=O)[O-])c2)c(OC)c1", "GI50": 2.11, "TGI": "> 50"}
{"smiles": "CCOC(=O)C(NC(=O)c1ccco1)(Nc1nc2ccc(OCC)cc2s1)C(F)(F)F", "note": "(centres undefined)", "TGI": "> 100"}
{"smiles": "CCC(C)C1=C(OC(C)=O)[N+]2([O-])Oc3ccc(-c4c(OC(C)=O)c(OC(C)=O)c(-c5ccc(OC(C)=O)cc5)c(OC(C)=O)c4OC(C)=O)cc3OC2(C(C)CC)C(=O)N1OC(C)=O", "note": "(centres undefined)", "TGI": 38}
{"smiles": "O=C(O)C1C2CCC(O2)C1C(=O)Nc1cccc2cccnc12", "note": "(centres undefined)", "TGI": "> 100"}
{"smiles": "COc1cccc2c1Cc1cc(-c3ccccc3)[n+](C)n1-2", "TGI": 14.5}
{"smiles": "O=C(OCN1C(=O)C2C3C=CC(C2C1=O)C1C2C(=O)N(COC(=O)C4CCCN4)C(=O)C2C31)C1CCCN1", "note": "(centres undefined)", "TGI": "> 100"}
{"smiles": "O=C(C[n+]1ccc2ccccc2c1)c1ccc2ccc3ccccc3c2c1", "TGI": 19.7}
{"smiles": "NCCCCc1cc(O)c2c(c1O)C(=O)c1ccccc1C2=O", "TGI": 35}
{"smiles": "Cc1ccccc1C(=O)N/N=C/c1ccc(Sc2nccn2C)c([N+](=O)[O-])c1", "TGI": "> 100"}
